Data taken from patent US7442706B2, “Methods for treating sarcopenia with a growth hormone secretagogue” (priority 2006, dated 2008).
“Also recorded” adds a separate entry of the source.

What was measured:
IGF-I = test: Serum total IGF-I levels (Immulite 2000) in the 2-year placebo-controlled trial; type: in vivo, human; conditions: for IGF-I levels after withdrawal of MK-677 or switch to placebo: after crossover to placebo in year 2 or 3 and 6 months after withdrawal
Description: Sixty-five healthy men and women (±HRT) ages 60-81 years were enrolled in a 2-year study of MK-677 (25 mg p.o. daily) or placebo. In addition to GH and IGF-I, the primary endpoints were fat-free mass (FFM), by 4-compartment model and DXA, and abdominal visceral fat (AVF) by CT. Secondary endpoints included isokinetic strength, function and quality of life (QoL); all endpoints were assessed at baseline and every 6 months, with frequent monitoring for adverse effects. This NIH-funded study was approved by the General Clinical Research Center (GCRC) and the University of Virginia Institutional Review Boards. All subjects gave written informed consent. A two-year, double-blind, placebo-controlled modified crossover trial of once-daily administration of an oral GH secretogogue (MK-677, 25 mg) to healthy older adults was performed. During the first year, subjects were randomized to MK-677 or placebo treatment. In each of 3 groups (23 men, 25 women on hormone replacement therapy (HRT) and 17 women not on HRT), ⅔ received MK-677 and ⅓ received placebo. At the end of year 1, the subjects who received placebo were switched to MK-677 treatment (N= 2/0 in year 2); subjects who received MK-677 for the first year were randomized to continue MK-677 (N=20) or to placebo (N=19). Assays and Insulin Sensitivity. Plasma glucose was measured on a Beckman analyzer and insulin and total IGF-I were measured in the GCRC Core Laboratory on an Immulite 2000 (Diagnostic Products Corporation, Los Angeles, Calif.). Additional safety laboratory tests were performed by standard methods in the UVA Clinical Laboratories. Fasting insulin and glucose were used to estimate insulin sensitivity by the Quicki method (4). The primary outcome data for the 6- and 12-month changes in FFM and AVF as well as for IGF-I and GH were analyzed via repeated measures ANCOVA. The FFM and AVF data were analyzed on the same scale as they were measured, while the IGF-I and GH data were transformed to the natural logarithmic scale before conducting the statistical analyses so that the variance and normality assumptions of the linear model were not violated. Since the FFM and AVF data were analyzed on the same scale as initially measured, the 6- and 12-month changes are reported as a difference between arithmetic means; changes in IGF-I and GH data analyzed on the natural algorithmic scale are reported as a ratio of geometric means.

[1] = Body water (TBW by deuterium dilution, ECW by bromide dilution, ICW by difference); type: in vivo, human; conditions: 12 months; expressed per kg FFM
Description: Body Water. Total body water (TBW) was measured using the deuterium oxide (D2O) dilution technique ((8) and extracellular water (ECW) by bromide dilution (10). Intracellular water (ICW) was assessed as the difference between TBW and ECW. To determine the relative relationships of total-, extra- and intra-cellular water, each component (in kg) was expressed per kg of FFM at each time point.

SMILES: CC(C)(N)C(=O)N[C@H](COCc1ccccc1)C(=O)N1CCC2(CC1)CN(S(C)(=O)=O)c1ccccc12.CS(=O)(=O)O [MK-677, N-[1(R)-[(1,2-dihydro-1-methanesulfonylspiro[3H-indole-3,4′-piperidin]-1′-yl)carbonyl]-2-(phenylmethyloxy)ethyl]-2-amino-2-methylpropanamide methanesulfonate]
- IGF-I levels after withdrawal of MK-677 or switch to placebo (IGF-I; listed as Mk-677, methanesulfonate): fell to baseline levels
- IGF-I levels after withdrawal of MK-677 or switch to placebo (IGF-I; methanesulfonate): returned to pre-treatment levels
- fold increase in IGF-I levels (IGF-I; at 6 and 12 months, 25 mg p.o. daily, N=43): 1.5 fold
- IGF-I levels relative to normal range for young adults aged 21-25 (116-358 μg/L) (IGF-I; first year, 25 mg p.o. daily, methanesulfonate): levels in the young adult normal range; also recorded: increased into the normal range for young adults
- changes in TBW, ECW or ICW vs. placebo [1]: no significant changes
